Test results as given in patent US6884577B2, “Methods for screening compounds for estrogenic activity” (The Regents of the University of California, priority 1993, dated 2005).

Key:
[1] = test system: ER at the AP-1 site of the collagenase promoter; assay: Collagenase promoter reporter in cells that express endogenous ER (Ishikawa, MCF-7, ZR-75-1); format: cell-based
Procedure: Left panel, coll73-CAT response with endogenous ER contrasted with the response of an ERE regulated reporter, ERE-coll60CAT. Right panel, coll73-LUC response with 3 μg co-transfected expression vector for human ER. Averages of three individual experiments are shown. […] A single representative experiment with triplicate hormone treatments is shown.
(§3) To further explore this phenomenon, and to test whether similar hormone effects could be detected at physiological levels of ER, the expression of the collagenase promoter in cells that express endogenous ER was examined.

[2] = test system: human ER at the AP-1 site of the collagenase promoter (coll73); assay: Coll73-LUC luciferase reporter (collagenase promoter with AP-1 site) in cells transfected with human ER expression vector HEO; format: cell-based; conditions: relative to no ER
Procedure: All reporter genes described below have been modified by digestion with EcoR I and Ndel to remove a AP-I site in the backbone of pUG. […] Coll73-LUC was constructed by cloning a BamHI/Pvull fragment, that spanned the luciferase transcription unit, from pMG3 into coll73, which had been digested with BamHI and SmaI to remove the CAT transcription unit.
(§1) Cells were maintained and transfected as previously described in Webb et al., supra. […] F9 cells were seeded at 30% confluence upon 1.5 cm dishes and transfected overnight by calcium phosphate coprecipitation with 5 μg reporter gene, 1 μg actin β-HCG, and 1 μg of HEO, 300 ng each of c-jun and c-fos expression vectors. The cells were glycerol shocked and refed in growth medium containing hormone or ethanolic vehicle.
(§2) CAT assays were carried out as described in Webb et al., except that the cells were harvested one to two days after transfection instead of three. CAT activities were defined as the increase in cpm per hour at room temperature (corrected for background) per 100 μl of cell extract, normalized to production of 100 standard units of βHCG, from a co-transfected reporter gene, actin-HCG. […] Light units were defined as the luciferase activity per 100 μl of cell extract per 100 standard units of βHCG. Relative luciferase activities were calculated with respect to the results that were obtained in the absence of ER and hormone, which was set at 1 unit. For the data presented in Table I triplicate points were determined.
In each case, the cells were transfected with different amounts of the human ER expression vector HEO to determine the optimal response.

[3] = test system: MCF-7 cell; conditions: Braacke et al. 1991; cited from earlier work
[4] = test system: ER at the AP1 site of the collagenase promoter, F9 cells; assay: Δcoll73 CAT reporter in F9 cells with transiently transfected ER; format: cell-based, human; conditions: no c-Jun/c-fos, FIG. 1B
From the text: Cells were maintained and transfected as previously described in Webb et al., supra. […] […] The cells were glycerol shocked and refed in growth medium containing hormone or ethanolic vehicle.

[5] = test system: ER at classical ERE, Ishikawa cells; assay: ERE-coll60CAT reporter in Ishikawa cells; format: cell-based
From the text: Left panel, coll73-CAT response with endogenous ER contrasted with the response of an ERE regulated reporter, ERE-coll60CAT. […] Averages of three individual experiments are shown. […] A single representative experiment with triplicate hormone treatments is shown.
as §3

[6] = test system: ER at the AP1 site of the human collagenase promoter, ERC1 cells; assay: Collagenase promoter-CAT reporters (Δcoll73, Δcoll60) in ERC1 cells; format: cell-based
Procedure: FIGS. 1A and 1B show estrogen stimulation mediated by an AP1 site in ERC1 cells (FIG. 1A) and F9 cells (FIG. 1B). Typical results of CAT assays, normalized for transfection efficiency, following a single transfection are shown opposite. Each point is the mean value of triplicate assays, with standard errors. CAT activities from cells maintained in the absence of hormone are shown as white bars, those in the presence of a saturating concentration (100 nM) of estradiol as black bars.
CAT assays were carried out as described in Webb et al., except that the cells were harvested one to two days after transfection instead of three. CAT activities were defined as the increase in cpm per hour at room temperature (corrected for background) per 100 μl of cell extract, normalized to production of 100 standard units of βHCG, from a co-transfected reporter gene, actin-HCG. Luciferase assays were performed as described by Brasier et al. Methods Enzymol 216:386-97 (1992)) on similar extracts that were used for CAT assays. Light units were defined as the luciferase activity per 100 μl of cell extract per 100 standard units of βHCG. Relative luciferase activities were calculated with respect to the results that were obtained in the absence of ER and hormone, which was set at 1 unit. For the data presented in Table I triplicate points were determined. Standard deviations were less than 20%. […]

[7] = test system: human ER at the AP-1 site (collagenase promoter, AP-1-tk), HeLa cells; assay: CAT assays of HeLa cells transfected with AP-1 site reporter genes and human ER expression vector; format: cell-based; conditions: transiently expressed human ER, FIG. 2A
Procedure: Representations, at left, show the human collagenase promoter (shaded) and the consensus AP-1 site. […] CAT activity is normalized to a transfection control with the actin promoter driving expression of βHCG. Single representative experiments are shown, error bars represent standard deviation of triplicate hormone treatments.
as §1, §2
To further examine the effects of antiestrogens on the AP-1 directed pathway, reporter genes derived from the human collagenase promoter were transfected into HeLa cells.

C[C@]12CC[C@@H]3c4ccc(O)cc4CC[C@H]3[C@@H]1CC[C@@H]2O [estradiol, 17β-estradiol]
activation of the collagenase promoter (coll73-CAT) ([1]; Ishikawa cells, endogenous receptor, FIG. 4A): activated
induction of the collagenase promoter (coll73-LUC) ([1]; Ishikawa cells, receptor levels raised by transfection): inductions became larger
activation of the collagenase promoter ([1]; MCF-7 cells, endogenous ER, FIG. 4B): activated
activation of the collagenase promoter ([1]; ZR-75-1 cells): The same pattern occurred
Coll73 Luciferase Activity ([2]; CEF (fibroblast), no hormone, saturating hormone): 2.5
Coll73 Luciferase Activity ([2]; CHO (ovary), no hormone, saturating hormone): 3.3
Coll73 Luciferase Activity ([2]; CV-1 (kidney), no hormone, saturating hormone): 2.2
Coll73 Luciferase Activity ([2]; F9 (teratocarcinoma), no hormone, unliganded ER gave 3.2): 1.4
Coll73 Luciferase Activity ([2]; HELA (cervix), no hormone = 1, ICI 1 μM, tamoxifen 5 μM, estradiol 100 nM): 3.4
Coll73 Luciferase Activity ([2]; HEP G2 (liver), no hormone, saturating hormone): 4.3
Coll73 Luciferase Activity ([2]; MDA453 (breast), no hormone, saturating hormone): 8.4
Coll73 Luciferase Activity ([2]; NIH 3T3 (fibroblast), no hormone, saturating hormone): 3.3
Coll73 Luciferase Activity ([2]; SHM (myometrium), no hormone, saturating hormone): 2.0
Coll73 Luciferase Activity ([2]; SY5Y (neuroblastoma), no hormone, saturating hormone): 2.1
MCF-7 cell invasion activity of a re-constituted basement membrane [3]: stimulated
estrogen response of Δcoll73 [4]: failed to respond
expression of ERE-coll60 [5]: tenfold
estrogen response of Δcoll60 (AP1 site removed) [6]: no estrogen response
stimulation of Δcoll73 (CAT) ([6]; 100 nM estradiol, FIG. 1A): ten fold
activation of the collagenase promoter (coll517, coll73) [7]: activated
